For one data set, the system named is retinal ganglion cells. Particulars: animals, recent study (glaucoma background); cited from earlier work.
Data set [1] concerns EAE mice with optic neuritis. The experiment in a line: Incidence of optic neuritis (inflammatory cell infiltration of optic nerve) and clinical EAE, nicotinamide riboside. The class given is in vivo, SJL/J mice. On the procedure: (§1) Study outline: The neuroprotective effects of nicotinamide riboside were examined in EAE mice with optic neuritis. […] To induce EAE, mice were immunized several days later with 300 μg PLP emulsified in complete Freund's adjuvant (CFA), and control mice (without EAE) were mock-immunized with phosphate buffered saline (PBS) in CFA. All mice received 200 ng intraperitoneal pertussis toxin (PT) on the day of immunization (day 0) and again on day 2.
(§2) Eyes were treated with nicotinamide riboside by intravitreal (ivt) injections with a volume of 0.8 μl/injection of a stock solution of either 0.1 M or 0.4 M nicotinamide riboside in PBS (Groups 2, 4 and 5). […] Treament with nicotinamide riboside, as well as PBS control injections, were given ivt on days 0, 4, 7 and 11. Mice were scored daily for clinical EAE, and were sacrificed on day 14 by overdose with ketamine and xylazine.
(§3) Retinas were dissected and whole-mounted for fluorescent microscopy. RGC numbers were quantified by counting FG-labeled cells in 12 standardized fields in each retina. Optic nerves were dissected and processed for histology. Cut sections stained by H & E were evaluated for the presence of inflammatory cells to determine acute optic neuritis. RGCs were compared between PBS-treated and nicotinamide riboside-treated eyes with optic neuritis to determine whether nicotinamide riboside prevents loss of neurons.

Data set [2] relates to retinal ganglion cells (RGCs). On the procedure: as §1, §2, §3
Data set [3] deals with retinal ganglion cells (RGCs). The experiment in a line: Retinal ganglion cell (RGC) counts in EAE optic neuritis model, resveratrol intravitreal. Type of data set: in vivo, SJL/J mice. The settings on record: for RGC numbers: EAE eyes with optic neuritis, 0.8 μl intravitreal days 0, 3, 7, 11, day 14. The method, then: (§4) The experimental design is diagrammed in FIG. 21.
Three test doses were diluted:
(§5) Retinas were diessected and whole-mounted for fluorescent microscopy. […] Optic nerves were dissected and processed for histology. […] RGCs were compared between PBS-treated and resveratrol-treated eyes with optic neuritis to determine whether resveratrol prevents loss of neurons.

Data set [4] can be described thus: Measured resveratrol concentration in Captisol solutions and reconstitution of lyophilized product. Type of data set: physicochemical. The method, then:
Lyophilized vials containing 10% Captisol control vehicle were also manufactured. […] Lyophilized vials containing 40% Captisol control vehicle were also manufactured.
The filtered solutions were dispensed into vials (1.0 mL solution into 3 mL vial, Wheaton #223684), and lyophilized. At the end of the lyophilization cycle, the vials were sealed under vacuum and a cap crimped over the septa.
The lyophilized resveratrol product was an off-white cake. The material reconstituted in ˜20 seconds after the addition of 1.0 mL water. […] The lyophilized control vehicle product was a white cake. The material reconstituted in ˜20 seconds after the addition of 1.0 mL water. The reconstituted control vehicle was clear, with no visible particulates, and having a pH of 5.82.
The solution was stirred for 35 minutes, followed by sonication for 1 hour. The solution was stirred for an additional 50 minutes, followed by sonication for an additional hour. At this point, solid material was still present in the sample. An aliquot was removed for analysis. […] Because the solution appeared cloudy at this time, three portions were separated to try alternate mixing methods. Approximately 200 mL was transferred to a 500 mL volumetric flask and was sonicated for 45 min, approximately 300 mL was vigorously mixed with an overhead mixer for 90 minutes, and approximately 100 mL was homogenized for 25 minutes. None of the three portions appeared clear. […] The portions were combined and were stirred at ambient temperature overnight protected from light. The following morning, using an aseptic technique in the laminar flow hood, the solution was sterile filtered via a Nalgene 90 mm filter unit (Cat# 167-0020; […]).

The subject of data set [5] is EAE mice with optic neuritis. The experiment in a line: Clinical EAE score and incidence of optic neuritis, resveratrol intravitreal. Type of data set: in vivo, SJL/J mice. Particulars: for Peak EAE Score For Individual Mice: five point scale.
Excerpt: as §4
Mice were scored daily for clinical EAE on a five point scale: no disease=0; partial tail paralysis=0.5; tail paralysis or waddling gait=1.0; partial tail paralysis and waddling gait=1.5; tail paralysis and waddling gait=2.0; partial limb paralysis=2.5; paralysis of one limb=3.0; paralysis of one limb and partial paralysis of another=3.5; paralysis of two limbs=4.0; moribund state=4.5; death=5.0.
as §5

Where [6] appears, read: optic nerve, acute optic neuritis in EAE.

SMILES strings stand for the structures. “And” between values parts separate entries of the source, which are not always exact repeats. Equal values may be shown once. Read-outs that look alike come from different tables or passages of the source.

As to `N=C(N)NN` [aminoguanidine], the “loss of retinal ganglion cells” value in the data set with retinal ganglion cells is given as “reduction in the loss of retinal ganglion cells”.

For the compound `NC(=O)c1ccc[n+]([C@@H]2O[C@H](CO)[C@@H](O)[C@H]2O)c1` [nicotinamide riboside], in data set [1] (nicotinamide riboside treated mice vs controls), the “Incidence of optic neuritis and clinical EAE vs controls” value is on record as “did not differ”. Also, the Inflammatory cell infiltration entry in data set [1] (setting [6]) is “does not prevent”. For the same compound, in data set [2] (mouse, in vivo), the “Toxicity to RGCs” value is “not toxic”. For the same compound, the “RGC numbers vs control eyes” value in data set [2] (non-EAE eyes treated with nicotinamide riboside (Group 2) vs control eyes (Group 1)) is on record as “no difference”.

In the case of `Oc1ccc(/C=C/c2cc(O)cc(O)c2)cc1` [resveratrol, 3,5,4′-Trihydroxy-trans-stilbene], the RGC numbers in data set [3] (38 μM resveratrol) stood at 452±136 RGCs; in data set [3] (77 μM resveratrol), 585±198 RGCs; in data set [3] (600 μM resveratrol), 644±148 RGCs. For the same compound, the “Toxicity to RGCs” value in data set [3] (mouse, in vivo) is on record as “not toxic”. For the same compound, in data set [3] (non-EAE eyes treated with resveratrol vs control eyes), the “RGC numbers vs control eyes” value is “no difference”. Also, the “concentration of resveratrol in solution” value in data set [4] (10% Captisol lyophilisate reconstituted with 1.0 mL water, pH 5.91) is 14400 µM; in data set [4] (10% Captisol, after 0.20 μm filtration, pH 4.83), 14900 µM; in data set [4] (10% Captisol, mixed 1 hour at ambient temperature, initial solution, pH 5.02 (target 20 mM)), 15400 µM; in data set [4] (40% Captisol, portion homogenized for 25 minutes), 74000 µM; in data set [4] (40% Captisol, stirred overnight at ambient temperature, sterile filtered), 168000 µM. Further, the “concentration of resveratrol in solution (HPLC)” value in data set [4] (40% Captisol, after stirring and sonication, solid still present, pH 4.76 (target 175 mM)) is 55000 µM. The “Peak EAE Score For Individual Mice” value in data set [5] (Control (non-EAE) mice, 38 μM resveratrol intravitreal) is 0; in data set [5] (Control (non-EAE) mice, 600 μM resveratrol intravitreal) it was 0; in data set [5] (EAE mice, 38 μM resveratrol intravitreal), 1.5 and 3 (2×) and 0 and 5 and 2.5 and 1 (2×); in data set [5] (EAE mice, 77 μM resveratrol intravitreal) it was 2 (4×) and 2.5 (3×) and 0 and 3.5 and 5 and 1.5; in data set [5] (EAE mice, 600 μM resveratrol intravitreal) it was 2.5 and 2 (2×) and 5 and 4.5 and 1.5 and 0.5. For the same compound, in data set [5] (setting [6]), the Inflammatory cell infiltration result is “does not prevent”. The “Incidence of optic neuritis and clinical EAE vs controls” value in data set [5] (resveratrol treated mice vs controls) is “did not differ”.

The record behind these values is patent US20060292099A1, “Treatment of eye disorders with sirtuin modulators” (priority 2005, published 2006).
